Reference: USRE48097E1, “Cephem compounds, their production and use” (priority 2015, dated 2020)
In brackets after ≈: the same amount, converted by molar mass. Read-outs that look alike come from different tables or passages of the source. Blank lines part the entries; values can stand above or below the compound they belong to.

Columns and labels:
[1] = system: E. cloacae596; assay: MIC against E. cloacae596; assay type: cell-based, E. cloacae; conditions: Table 2, E. cloacae596, Caz R, IMP S
Excerpt: (§1) Without limitation, the present cephem compounds alone, or in combination with one or more β-lactamase inhibitors, may provide improved antibacterial efficacy, particularly in antibiotic-resistant bacterial strains. It is believed that the present compounds may be structurally different from known compounds and, as a result, may be more basic in nature. It is an advantage that the present compounds may extend the spectrum of effective bacterial compounds, particularly against previously-resistant bacteria (e.g. ESKAPE organisms), and/or gram negative bacteria, without significant side effects. In a preferred embodiment, the present cephem compound may comprise reference compound ceftazidime, which may be used alone, or in combination with one or more β-lactamase inhibitors, such as NXL-104. As shown, the foregoing composition was tested for minimum inhibitory concentration (MIC, μg/mL) against bacteria listed in Tables 2-3.

[2] = system: E. cloacae 2044; assay: MIC against E. cloacae 2044; assay type: cell-based; conditions: Table 2, E. cloacae 2044, Caz S, IMP S
Excerpt: as §1

[3] = system: C. freundii 579; assay: MIC against C. freundii 579; assay type: cell-based; conditions: Table 2, C. freundii 579, Caz R, IMP S
Excerpt: as §1

[4] = system: K. pneumoniae 2689; assay: MIC against K. pneumoniae 2689; assay type: cell-based; conditions: K. pneumoniae 2689, KPC-2
Procedure: (§2) As shown, the foregoing composition was tested for minimum inhibitory concentration (MIC, μg/mL) against bacteria listed in Tables 2-3.

[5] = system: K. pneumoniae 2713; assay: MIC against K. pneumoniae 2713; assay type: cell-based; conditions: Table 3, K. pneumoniae 2713, KPC-3, VIM-1
Procedure: as §2

[6] = system: K. pneumoniae 4109; assay: MIC against K. pneumoniae 4109; assay type: cell-based; conditions: Table 2, K. pneumoniae 4109, SHV-1, SHV-12
Excerpt: as §1

[7] = system: E. coli 4102; assay: MIC against E. coli 4102; assay type: cell-based; conditions: Table 2, E. coli 4102, CTX-M-14
Excerpt: as §1

[8] = system: E. coli 4103; assay: MIC against E. coli 4103; assay type: cell-based; conditions: Table 3, E. coli 4103, KPC-2, TEM-1, CMY-type
Procedure: as §2

[9] = system: K. pneumoniae 4105; assay: MIC against K. pneumoniae 4105; assay type: cell-based; conditions: K. pneumoniae 4105, KPC-3, TEM-1, SHV-11
Procedure: as §2

[10] = system: K. pneumoniae 4104; assay: MIC against K. pneumoniae 4104; assay type: cell-based; conditions: K. pneumoniae 4104, KPC-3, TEM-1
Procedure: as §2

[11] = system: K. baumanii 4091; assay: MIC against K. baumanii 4091; assay type: cell-based; conditions: Table 2, K. baumanii 4091, OXA-23
Excerpt: as §1

[12] = system: S. aureus 3136; assay: MIC against S. aureus 3136; assay type: cell-based; conditions: Table 2, S. aureus 3136, MSSA
Excerpt: as §1

[13] = system: E. coli 4098; assay: MIC against E. coli 4098; assay type: cell-based; conditions: Table 2, E. coli 4098, CTX-M-15, TEM-1
Excerpt: as §1

[14] = system: E. cloacae 2689; assay: MIC against E. cloacae 2689; assay type: cell-based; conditions: Table 3, E. cloacae 2689, KPC-2
Procedure: as §2

[15] = system: C. freundii 2003; assay: MIC against C. freundii 2003; assay type: cell-based; conditions: Table 2, C. freundii 2003, Caz R, IMP S
Excerpt: as §1

[16] = system: M. morganii 2409; assay: MIC against M. morganii 2409; assay type: cell-based; conditions: Table 2, M. morganii 2409, High level cephase, β-Lactamase producing
Excerpt: as §1

[17] = system: K. pneumoniae 2711; assay: MIC against K. pneumoniae 2711; assay type: cell-based; conditions: Table 3, K. pneumoniae 2711, KPC-3, VIM-1
Procedure: as §2

[18] = system: S. pneumoniae 2492; assay: MIC against S. pneumoniae 2492; assay type: cell-based; conditions: Table 2, S. pneumoniae 2492, Pen R
Excerpt: as §1

[19] = system: E. cloacae 566; assay: MIC against E. cloacae 566; assay type: cell-based; conditions: Table 2, E. cloacae 566, Caz R, IMP S
Excerpt: as §1

[20] = system: K. pneumoniae 2712; assay: MIC against K. pneumoniae 2712; assay type: cell-based; conditions: Table 3, K. pneumoniae 2712, KPC-3, VIM-1
Procedure: as §2

[21] = system: K. pneumoniae 4106; assay: MIC against K. pneumoniae 4106; assay type: cell-based; conditions: K. pneumoniae 4106, KPC-3, TEM-1, SHV-12, SHV-141
Procedure: as §2

[22] = system: E. coli 102; assay: MIC against E. coli 102; assay type: cell-based; conditions: Table 2, E. coli 102, TEM-1
Excerpt: as §1

[23] = system: E. coli 2671; assay: MIC against E. coli 2671; assay type: cell-based; conditions: Table 2, E. coli 2671, VIM-19
Excerpt: as §1

[24] = Enterobacter cloacae, alone, read-out: MIC
[25] = Citrobacter freundii, alone, read-out: MIC
[26] = Klebsiella pneumoniae, 2689, Table 2, alone, read-out: MIC
[27] = Klebsiella pneumoniae, 2689, Table 3, alone, read-out: MIC
[28] = Table 2, in combination with NXL-104
[29] = Table 3, in combination with NXL-104
[30] = Klebsiella pneumoniae, alone, read-out: MIC
[31] = Escherichia coli, alone, read-out: MIC
[32] = Klebsiella pneumoniae, 4105, Table 2, alone, read-out: MIC
[33] = Klebsiella pneumoniae, 4105, Table 3, alone, read-out: MIC
[34] = Klebsiella pneumoniae, 4104, Table 2, alone, read-out: MIC
[35] = Klebsiella pneumoniae, 4104, Table 3, alone, read-out: MIC
[36] = Staphylococcus aureus, alone, read-out: MIC
[37] = Morganella morganii, alone, read-out: MIC
[38] = Streptococcus pneumoniae, alone, read-out: MIC
[39] = Klebsiella pneumoniae, 4106, Table 2, alone, read-out: MIC
[40] = Klebsiella pneumoniae, 4106, Table 3, alone, read-out: MIC

MIC [1, 24]: 8 µg/mL
MIC ([1]; in combination with NXL-104): 0.25 µg/mL
MIC [2, 24]: 0.5 µg/mL
MIC ([2]; in combination with NXL-104): 0.12 µg/mL
MIC [3, 25]: 4 µg/mL
MIC ([3]; in combination with NXL-104): 0.25 µg/mL
MIC [4, 26]: 8 µg/mL (≈ 11.1 µM)
MIC [4, 27]: 8 µg/mL (≈ 11.1 µM)
MIC [4, 28]: 1.00 µg/mL
MIC [4, 29]: 1 µg/mL
MIC [5, 30]: > 32 µg/mL
MIC ([5]; in combination with NXL-104): 2 µg/mL
MIC [6, 30]: 8 µg/mL
MIC ([6]; in combination with NXL-104): 0.12 µg/mL
MIC [7, 31]: 1 µg/mL
MIC ([7]; in combination with NXL-104): ≤0.06 µg/mL
MIC [8, 31]: > 32 µg/mL
MIC ([8]; in combination with NXL-104): 4 µg/mL
MIC [9, 32]: 32 µg/mL (≈ 44.2 µM)
MIC [9, 33]: 32 µg/mL (≈ 44.2 µM)
MIC [9, 28]: 1.00 µg/mL
MIC [9, 29]: 1 µg/mL
MIC [10, 34]: 32 µg/mL (≈ 44.2 µM)
MIC [10, 35]: 16 µg/mL (≈ 22.1 µM)
MIC [10, 28]: 2.00 µg/mL
MIC [10, 29]: 0.5 µg/mL
MIC ([11]; alone, read-out: MIC): 8 µg/mL
MIC ([11]; in combination with NXL-104): 2.00 µg/mL
MIC [12, 36]: 2 µg/mL
MIC ([12]; in combination with NXL-104): 2.00 µg/mL
MIC [13, 31]: > 32 µg/mL
MIC ([13]; in combination with NXL-104): 0.12 µg/mL
MIC [14, 24]: 16 µg/mL (≈ 22.1 µM)
MIC ([14]; in combination with NXL-104): 0.5 µg/mL
MIC [15, 25]: 8 µg/mL
MIC ([15]; in combination with NXL-104): 0.25 µg/mL
MIC [16, 37]: 16 µg/mL
MIC ([16]; in combination with NXL-104): 0.50 µg/mL
MIC [17, 30]: 2 µg/mL (≈ 2.76 µM)
MIC ([17]; in combination with NXL-104): 0.25 µg/mL
MIC [18, 38]: 2 µg/mL
MIC ([18]; in combination with NXL-104): 2.00 µg/mL
MIC [19, 24]: 2 µg/mL
MIC ([19]; in combination with NXL-104): 0.50 µg/mL
MIC [20, 30]: > 32 µg/mL
MIC ([20]; in combination with NXL-104): 4 µg/mL
MIC [21, 39]: 16 µg/mL (≈ 22.1 µM)
MIC [21, 40]: 32 µg/mL (≈ 44.2 µM)
MIC [21, 28]: 1.00 µg/mL
MIC [21, 29]: 2 µg/mL
MIC [22, 31]: ≤ 0.06 µg/mL
MIC ([22]; in combination with NXL-104): ≤0.06 µg/mL
MIC [23, 31]: 16 µg/mL
MIC ([23]; in combination with NXL-104): 16.00 µg/mL
SMILES: CC(C)(O/N=C(\C(=O)N[C@@H]1C(=O)N2C(C(=O)[O-])=C(C[n+]3ccc4c(ccn4Cc4cc(C(=N)N)cs4)c3)CS[C@H]12)c1csc(N)n1)C(=O)O [Example 5, (6R,7R)-7-{[(2Z)-2-(2-Amino-1,3-thiazol-4-yl)-2-{[(2-carboxypropan-2-yl)oxy]imino}acetyl]amino}-3-({1-[(4-carbamimidoylthiophen-2-yl)methyl]-1H-pyrrolo[3,2-c]pyridin-5-ium-5-yl}methyl)-8-oxo-5-thia-1-azabicyclo[4.2.0]oct-2-ene-2-carboxylate]

MIC [1, 24]: 0.5 µg/mL
MIC ([1]; in combination with NXL-104): 0.25 µg/mL
MIC [2, 24]: 0.25 µg/mL
MIC ([2]; in combination with NXL-104): 0.12 µg/mL
MIC [3, 25]: 2 µg/mL
MIC ([3]; in combination with NXL-104): 0.50 µg/mL
MIC [4, 26]: 8 µg/mL (≈ 11.3 µM)
MIC [4, 27]: 32 µg/mL (≈ 45.1 µM)
MIC [4, 28]: 2.00 µg/mL
MIC [4, 29]: 2 µg/mL
MIC [5, 30]: > 32 µg/mL
MIC ([5]; in combination with NXL-104): 2 µg/mL
MIC [6, 30]: 0.5 µg/mL
MIC ([6]; in combination with NXL-104): 0.12 µg/mL
MIC [7, 31]: 1 µg/mL
MIC ([7]; in combination with NXL-104): 0.12 µg/mL
MIC [8, 31]: > 32 µg/mL
MIC ([8]; in combination with NXL-104): 8 µg/mL
MIC [9, 32]: 32 µg/mL (≈ 45.1 µM)
MIC [9, 33]: > 32 µg/mL
MIC [9, 28]: 2.00 µg/mL
MIC [9, 29]: 2 µg/mL
MIC [10, 34]: 8 µg/mL (≈ 11.3 µM)
MIC [10, 35]: 32 µg/mL (≈ 45.1 µM)
MIC [10, 28]: 2.00 µg/mL
MIC [10, 29]: 2 µg/mL
MIC ([11]; alone, read-out: MIC): 8 µg/mL
MIC ([11]; in combination with NXL-104): 2.00 µg/mL
MIC [12, 36]: 2 µg/mL
MIC ([12]; in combination with NXL-104): 2.00 µg/mL
MIC [13, 31]: 1 µg/mL
MIC ([13]; in combination with NXL-104): 0.25 µg/mL
MIC [14, 24]: 8 µg/mL (≈ 11.3 µM)
MIC ([14]; in combination with NXL-104): 0.5 µg/mL
MIC [15, 25]: 2 µg/mL
MIC ([15]; in combination with NXL-104): 0.50 µg/mL
MIC [16, 37]: 8 µg/mL
MIC ([16]; in combination with NXL-104): 1.00 µg/mL
MIC [17, 30]: 4 µg/mL (≈ 5.64 µM)
MIC ([17]; in combination with NXL-104): 0.5 µg/mL
MIC [18, 38]: 8 µg/mL
MIC ([18]; in combination with NXL-104): 8.00 µg/mL
MIC [19, 24]: 0.5 µg/mL
MIC ([19]; in combination with NXL-104): 0.25 µg/mL
MIC [20, 30]: > 32 µg/mL
MIC ([20]; in combination with NXL-104): 4 µg/mL
MIC [21, 39]: 8 µg/mL (≈ 11.3 µM)
MIC [21, 40]: > 32 µg/mL
MIC [21, 28]: 2.00 µg/mL
MIC [21, 29]: 4 µg/mL
MIC [22, 31]: ≤ 0.06 µg/mL
MIC ([22]; in combination with NXL-104): ≤0.06 µg/mL
MIC [23, 31]: 4 µg/mL
MIC ([23]; in combination with NXL-104): 4.00 µg/mL
SMILES: CC(C)(O/N=C(\C(=O)N[C@@H]1C(=O)N2C(C(=O)[O-])=C(C[n+]3ccc4n3CCN4Cc3ccc(C(=N)N)cc3)CS[C@H]12)c1csc(N)n1)C(=O)O [Example 2, (6R,7R)-7-{[(2Z)-2-(2-Amino-1,3-thiazol-4-yl)-2-{[(2-carboxypropan-2-yl)oxy]imino}acetyl]amino}-3-{[1-(4-carbamimidoylbenzyl)-2,3-dihydro-1H-imidazo[1,2-b]pyrazol-5-ium-5-yl]methyl}-8-oxo-5-thia-1-azabicyclo[4.2.0]oct-2-ene-2-carboxylate]
